Measured values from US20110060017A1, “NOVEL 1,2,3-TRIAZOLE DERIVATIVES USEFUL AS MODULATORS OF NICOTINIC ACETYLCHOLINE RECEPTORS” (Neurosearch A/S, priority 2008, published 2011).

Key:
[1] = biological target: T1, wild-type nAChR α7 receptors (Homo sapiens, UniProt P36544); test: Positive modulation of acetylcholine-induced nAChR α7 currents in Xenopus laevis oocytes (two-electrode voltage clamp); type: cell-based
T1 construct: expressed in transfected cells; host or cells: Xenopus laevis oocytes
T1 sequence (P36544 23-502): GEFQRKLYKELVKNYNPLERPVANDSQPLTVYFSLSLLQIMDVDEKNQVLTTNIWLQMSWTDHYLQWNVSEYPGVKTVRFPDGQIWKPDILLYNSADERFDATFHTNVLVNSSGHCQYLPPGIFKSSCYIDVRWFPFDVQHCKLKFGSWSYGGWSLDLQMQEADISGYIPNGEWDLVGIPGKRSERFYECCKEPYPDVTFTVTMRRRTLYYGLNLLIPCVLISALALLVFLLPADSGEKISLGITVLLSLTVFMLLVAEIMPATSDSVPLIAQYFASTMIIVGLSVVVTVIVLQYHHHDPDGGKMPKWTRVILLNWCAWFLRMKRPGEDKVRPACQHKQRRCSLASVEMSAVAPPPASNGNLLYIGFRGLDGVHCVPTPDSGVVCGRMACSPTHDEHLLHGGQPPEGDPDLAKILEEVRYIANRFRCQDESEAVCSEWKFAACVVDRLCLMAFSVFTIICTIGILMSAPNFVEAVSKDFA
Experimental: In this example the positive modulation of wild-type nAChR α7 receptors by Compound 4 (i.e. 4-[5-Amino-4-(2,4-dichloro-phenyl)-[1,2,3]triazol-1-ylmethyl]phenol; FIGS. 1A and 1B) was determined using nAChR α7 receptors heterologously expressed in Xenopus laevis oocytes.
The electrical current through the nAChR α7 channel was measured using conventional two-electrode voltage clamp and nAChR α7 currents were activated by applying pulses of agonist-containing solution onto the nAChR α7 expressing oocyte.
In brief, the oocytes were placed in a recording chambers and continuously super-fused with an Oocyte Ringer (OR) solution containing 90 mM NaCl, 2.5 mM KCl, 2.5 mM CaCl2, 1 mM MgCl2 and 5 mM HEPES (pH adjusted to 7.4). The oocytes were clamped at −60 mV and currents were induced by applying 20 s pulses of 100 μM acetylcholine dissolved in OR. The intervals between the acetylcholine applications were 5 minutes, during which the oocytes were washed with OR. The first three applications were control applications to insure a constant response level of 100 μM acetylcholine.
The positive modulation in the presence of Compound 4 was calculated as (test-control)/control*100% and the concentration response curve for this positive modulation was fitted to the sigmoidal logistic equation: I=Imax/(1+(EC50/[compound])^n), where Imax represents the maximal modulation of the control response, EC50 is the concentration causing a half maximal response, and n is the slope coefficient.

Row | Structure (SMILES) | melting point | Imax, maximal modulation of the acetylcholine response ([1]; 100 μM acetylcholine, (test-control)/control*100%, Xenopus laevis oocytes, 0.01-31.6 μM compound) | EC50 ([1]; 100 μM acetylcholine, nAChR α7 expressed in Xenopus laevis oocytes, clamped at −60 mV, 0.01-31.6 μM compound, read-out: EC50 for positive modulation of acetylcholine responses) | effect on acetylcholine-induced current amplitude ([1]; 0.01-31.6 μM compound applied 30 s before and during 100 μM acetylcholine)
1 | COc1ccc(Cn2nnc(-c3ccc(Cl)cc3Cl)c2N)cc1 [Compound 1, 5-(2,4-Dichloro-phenyl)-3-(4-methoxy-benzyl)-3H-[1,2,3]triazol-4-ylamine] | 134.4 to 136.8 °C |  |  | 
2 | COc1ccc(-c2nnn(Cc3ccc(Cl)cc3Cl)c2N)cc1 [Compound 2, 3-(2,4-Dichloro-benzyl)-5-(4-methoxy-phenyl)-3H-[1,2,3]-triazol-4-ylamine] | 156.5 to 159 °C |  |  | 
3 | Nc1c(-c2ccc(Cl)cc2Cl)nnn1Cc1ccc(O)cc1 [Compound 4, 4-[5-Amino-4-(2,4-dichloro-phenyl)-[1,2,3]triazol-1-ylmethyl]-phenol] | 172.5 to 174.1 °C | 277% | 1100 nM | robust increase
4 | Nc1c(-c2ccc(C(F)(F)F)cc2F)nnn1Cc1ccc(S(N)(=O)=O)cc1 [Compound 5, 4-[5-Amino-4-(2-fluoro-4-trifluoromethyl-phenyl)-[1,2,3]-triazol-1-ylmethyl]-benzenesulfonamide] | 180.1 to 181.3 °C |  |  | 
5 | Nc1c(-c2ccc(Cl)cc2Cl)nnn1Cc1ccc(S(N)(=O)=O)cc1 [Compound 6, 4-[5-Amino-4-(2,4-dichloro-phenyl)-[1,2,3]-triazol-1-ylmethyl]-benzenesulfonamide] | 204 to 205.6 °C |  |  | 
6 | COc1ccc(Cn2nnc(-c3ccc(C(F)(F)F)cc3F)c2N)cc1 [Compound 7, 5-(2-Fluoro-4-trifluoromethyl-phenyl)-3-(4-methoxy-benzyl)-3H-[1,2,3]-triazol-4-ylamine] | 153.2 to 154.4 °C |  |  | 
7 | Nc1c(-c2ccc(C(F)(F)F)cc2F)nnn1Cc1ccc(O)cc1 [Compound 8, 4-[5-Amino-4-(2-fluoro-4-trifluoromethyl-phenyl)-[1,2,3]-triazol-1-ylmethyl]-phenol] | 168.2 to 169.5 °C |  |  | 
